Results on one compound are retold here after patent US20230159891A1, “T CELL PROGENITOR PRODUCTION METHOD” (Kyoto University, priority 2020, published 2023).

For experiment [1], the system named is Hemogenic endothelial cells (HECs) induced from iPS cells. Briefly: Differentiation culture of iPS-derived hemogenic endothelial cells into CD34+/CD7+ T cell progenitors (Example 1). Type of experiment: cell-based, human. The procedure: The cell population containing hemogenic endothelial cells (HECs) for use was a floating cell population obtained by differentiating iPS cells (Ff-I01s04: derived from peripheral blood mononuclear cells of a healthy individual) provided from the Center for iPS Cell Research and Application, Kyoto University, according to known methods (e.g., the methods disclosed in Cell Reports 2 (2012) 1722-1735, or WO2017/221975). Specifically, Ff-I01s04 was seeded at 1×10^6 cells/well in an ultra-low-attachment 6-well plate (Day 0). The cells were cultured under hypoxic conditions (5% 02) for 4 days in EB medium (StemPro-34 supplemented with 10 μg/ml human insulin, 5.5 μg/ml human transferrin, 5 ng/ml sodium selenite, 2 mM L-glutamine, […] α-monothioglycerol, and 50 μg/ml ascorbic acid 2-phosphate) supplemented with 50 ng/ml BMP4, 50 ng/ml bFGF, 50 ng/ml VEGF, and 2 μM SB431542 (Day 4). Subsequently, culture was further performed in a medium supplemented with 50 ng/ml bFGF, 50 ng/ml VEGF, and 50 ng/ml SCF for 4 days (Day 8), thereby obtaining a cell population containing HECs. The floating cell population containing HECs were stained with the following antibody set. […] On day 11 after the start of culture, cells were collected with pipetting, and the cell number was measured. […]

A further experiment concerns CD34^+ cells. The conditions noted are these: NPL 5 (Boitano et al.); cited from earlier work.
Experiment [2] has as its system Hemogenic endothelial cells (HECs) derived from iPS cells. Nature of the experiment: Importance of SR1 and IL-3 in production of T cell progenitor (Example 3). Type of experiment: cell-based, human. The conditions noted are these: 12 days culture. How it is done:
Hemogenic endothelial cells (HECs) derived from iPS cells prepared in the same manner as in Example 1 were sorted by BD FACSAria® Fusion and re-suspended in a StemSpan SFEM II medium, followed by seeding the cells into a culture vessel (6-well plate) coated with RN and DLL4-Fc (225,000/6 wells). […] Halfway through the culture, on day 4 after the start of culture, 500 μl of the medium described above was added. On day 7 after the start of culture, a half amount of the medium was replaced. On day 12 after the start of culture, cells were collected with pipetting, and the cell number was measured. The cells were stained with the antibodies shown in Table 2 and measured with BD FACSAria™ Fusion.

Take `CC(C)n1cnc2c(NCCc3ccc(O)cc3)nc(-c3csc4ccccc34)nc21` [SR1, 4-(2-((2-(benzo[b]thiophen-3-yl)-9-isopropyl-9H-purin-6-yl)amino)ethyl)phenol]: in experiment [1] (10 days of culture, 1 nM SR1 with SCF, Flt3L, TPO, IL-7, IL-6, IL-3 in StemSpan SFEM II on RetroNectin/DLL4-Fc coated plate), the cell growth result was “about 150 fold”. In experiment [1] (same culture as E1, flow cytometry after culture), the “proportion of cells that were proT (CD34+/CD7+) cells” value is reported as “about 25%”. For the same compound, the “expansion of CD34+ cells” value in the experiment on CD34^+ cells was “promoted expansion”. For the same compound, the “expression level of CD34” value in experiment [2] (flow cytometry, control vs -SR1 condition, FIG. 4) is reported as “plays an important role in maintaining the expression level of CD34”. The “cell proliferation (cell number) when the factor is excluded from the additives” value in experiment [2] (control: 1 nM SR1, 10 ng/ml IL-3 plus SCF, Flt3L, TPO, IL-7, IL-6, FIG. 3) is listed as “reduced”.
